The assay addresses one or more of HDAC-4, HDAC-5, HDAC-6, HDAC-7, HDAC-8, HDAC-9, HDAC-10 and HDAC-11. Briefly: Inhibition of histone deacetylase enzymatic activity (summary statement over isoforms). The conditions noted are these: Table 3, selected examples; HDAC isoform not given. Type of assay: biochemical. Put shortly:
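Activity was measured as deacetylation of the fluorogenic substrate Boc-Lys(trifluoroacetyl)-AMC over 20-30 min at 37 °C, after a 5 min room-temperature preincubation of enzyme with compound. Trypsin (1 mg/mL) with a reference HDAC inhibitor ended the reaction.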

Structures are written as SMILES.

Regarding `O=C(NO)C(c1ccc(Cl)cc1)c1ccc(Cl)cc1` [Compound 1-15, 2,2-bis(4-chlorophenyl)-N-hydroxyacetamide], the concentration for half-maximal inhibition (IC50) (commonly the concentration that gives 50% inhibition) was below 1 µM.
Regarding `CCCS(=O)(=O)Nc1ccc(C(C(=O)NO)c2ccccc2)cc1` (stereo not drawn) [Compound 2-86, N-hydroxy-2-phenyl-2-(4-(propylsulfonamido)phenyl)acetamide], the IC50 was below 1 µM.
`O=C(NO)C(c1ccccc1)c1ccc(Oc2ccccc2)cc1` (stereo not drawn) [Compound 5-111, N-hydroxy-2-(4-phenoxyphenyl)-2-phenylacetamide] showed an IC50 below 1 µM.
For the molecule `COCCOCCOc1ccc(C(C(=O)NO)c2ccccc2)cc1` (stereo not drawn) [Compound 3-90, N-hydroxy-2-(4-(2-(2-methoxyethoxy)ethoxy)phenyl)-2-phenylacetamide], the IC50 was below 1 µM.
The molecule `Cc1cccc(OC(C(=O)NO)c2ccccc2)c1` (stereo not drawn) [Compound 7-2, N-hydroxy-2-phenyl-2-(m-tolyloxy)acetamide] had an IC50 of 1 to 15 µM.
`CCCS(=O)(=O)Nc1cccc(C(C(=O)NO)c2ccccc2)c1` (stereo not drawn) [Compound 2-87, N-hydroxy-2-phenyl-2-(3-(propylsulfonamido)phenyl)acetamide] yielded an IC50 of 1 to 15 µM.
The molecule `Cc1ccccc1OC(C(=O)NO)c1ccccc1` (stereo not drawn) [Compound 7-1, N-hydroxy-2-phenyl-2-(o-tolyloxy)acetamide] returned a 50% inhibitory concentration (IC50) of 1 to 15 µM.
To `O=C(NO)C(c1ccccc1)N1CCN(S(=O)(=O)Cc2ccccc2)CC1` (stereo not drawn) [Compound 5-87, 2-(4-(benzylsulfonyl)piperazin-1-yl)-N-hydroxy-2-phenylacetamide] belongs 1 to 15 µM.
`O=C(NO)C(c1ccccc1)c1ccc(-n2ccc3ccccc32)cc1` (stereo not drawn) [Compound 5-81, 2-(4-(1H-indol-1-yl)phenyl)-N-hydroxy-2-phenylacetamide] displayed an IC50 below 1 µM.
Regarding `CCC(CC)COc1ccc(C(C(=O)NO)c2ccccc2)cc1` (stereo not drawn) [Compound 3-55, 2-(4-(2-ethylbutoxy)phenyl)-N-hydroxy-2-phenylacetamide], the IC50 was below 1 µM.
`O=C(NO)C(c1ccccc1)c1nnc(-c2ccc3ccccc3c2)s1` (stereo not drawn) [Compound 5-54, N-hydroxy-2-(5-(naphthalen-2-yl)-1,3,4-thiadiazol-2-yl)-2-phenylacetamide]: the IC50 was 1 to 15 µM.
Take `CCN(CCN(C)C)c1ccc(C(C(=O)NO)c2ccccc2)cc1` (stereo not drawn) [Compound 6-43]: the IC50 was below 1 µM.
`O=C(NO)C(c1ccccc1)c1cccc(N2CCN(c3ccc(F)cc3)CC2)c1` (stereo not drawn) [Compound 3-78, 2-(3-(4-(4-fluorophenyl)piperazin-1-yl)phenyl)-N-hydroxy-2-phenylacetamide] came in with an IC50 of 1 to 15 µM.
`Cc1ccccc1NC(=O)N1CCN(C(C(=O)NO)c2ccccc2)CC1` (stereo not drawn) [Compound 2-36, 4-(2-(hydroxyamino)-2-oxo-1-phenylethyl)-N-o-tolylpiperazine-1-carboxamide]: the IC50 lay within 1 to 15 µM.
In the case of `Cc1cc(C)cc(COc2cccc(C(C(=O)NO)c3ccccc3)c2)c1` (stereo not drawn) [Compound 3-35, 2-(3-(3,5-dimethylbenzyloxy)phenyl)-N-hydroxy-2-phenylacetamide], the half-inhibitory concentration (IC50) was below 1 µM.
To `O=C(NO)C(Sc1ccc(C(F)(F)F)cn1)c1ccccc1` (stereo not drawn) [Compound 2-47, N-hydroxy-2-phenyl-2-(5-(trifluoromethyl)pyridin-2-ylthio)acetamide] belongs 1 to 15 µM.
Regarding `O=C(NO)C(c1ccccc1)c1cccc(OCC2CCCCC2)c1` (stereo not drawn) [Compound 3-32, 2-(3-(cyclohexylmethoxy)phenyl)-N-hydroxy-2-phenylacetamide], the IC50 fell in the range of 1 to 15 µM.
On to `O=C(NO)C(c1ccccc1)c1ccc(OCCOc2ccc(F)cc2)cc1` (stereo not drawn) [Compound 3-69, 2-(4-(2-(4-fluorophenoxy)ethoxy)phenyl)-N-hydroxy-2-phenylacetamide], for which the IC50 was below 1 µM.
For the molecule `O=C(NO)C(Sc1nccc(-c2ccc(Cl)cc2)n1)c1ccccc1` (stereo not drawn) [Compound 1-37, 2-(4-(4-chlorophenyl)pyrimidin-2-ylthio)-N-hydroxy-2-phenylacetamide], the IC50 was below 1 µM.
Turning to `CC(C)Nc1cccc(C(C(=O)NO)c2ccccc2)c1` (stereo not drawn) [Compound 3-72, N-hydroxy-2-(3-(isopropylamino)phenyl)-2-phenylacetamide], the IC50 fell in the range of 1 to 15 µM.
As for `CN1CCN(c2ccc(C(C(=O)NO)c3ccccc3)cc2)CC1` (stereo not drawn) [Compound 5-83, N-hydroxy-2-(4-(4-methylpiperazin-1-yl)phenyl)-2-phenylacetamide], the IC50 was below 1 µM.
`O=C(NO)C(c1ccccc1)N1CCN(c2ccc(C(F)(F)F)cc2)CC1` (stereo not drawn) [Compound 5-43, N-hydroxy-2-phenyl-2-(4-(4-(trifluoromethyl)phenyl)piperazin-1-yl)acetamide]: the IC50 is below 1 µM.
On to `O=C(NO)C(Oc1ccc(F)c(Cl)c1)c1ccccc1` (stereo not drawn) [Compound 7-34, 2-(3-chloro-4-fluorophenoxy)-N-hydroxy-2-phenylacetamide], for which the IC50 fell in the range of 1 to 15 µM.
In the case of `CC(COc1cccc(C(C(=O)NO)c2ccccc2)c1)CN(C)C` (stereo not drawn) [Compound 3-17, 2-(3-(3-(dimethylamino)-2-methylpropoxy)phenyl)-N-hydroxy-2-phenylacetamide], the IC50 was below 1 µM.
Regarding `CC(C)=CCOc1cccc(C(C(=O)NO)c2ccccc2)c1` (stereo not drawn) [Compound 3-5, N-hydroxy-2-(3-(3-methylbut-2-enyloxy)phenyl)-2-phenylacetamide], the concentration for half-maximal inhibition (IC50) is below 1 µM.
To `COc1ccc(N2CCN(c3ccc(C(C(=O)NO)c4ccccc4)cc3)CC2)cc1` (stereo not drawn) [Compound 5-84, N-hydroxy-2-(4-(4-(4-methoxyphenyl)piperazin-1-yl)phenyl)-2-phenylacetamide] belongs below 1 µM.
The molecule `COc1cccc(NC(=O)N2CCCN(C(C(=O)NO)c3ccccc3)CC2)c1` (stereo not drawn) [Compound 2-37, 4-(2-(hydroxyamino)-2-oxo-1-phenylethyl)-N-(3-methoxyphenyl)-1,4-diazepane-1-carboxamide] showed a half-maximal inhibitory concentration (IC50) of 1 to 15 µM.
In turn, `CCCCOc1ccc(C#Cc2ccc(C(C(=O)NO)c3ccccc3)cc2)cc1` (stereo not drawn) [Compound 2-99, 2-(4-((4-butoxyphenyl)ethynyl)phenyl)-N-hydroxy-2-phenylacetamide] yielded an IC50 below 1 µM.
To `O=C(NO)C(c1ccccc1)c1nnc(-c2ccc(C(F)(F)F)cc2)s1` (stereo not drawn) [Compound 5-37, N-hydroxy-2-phenyl-2-(5-(4-(trifluoromethyl)phenyl)-1,3,4-thiadiazol-2-yl)acetamide] belongs below 1 µM.
In the case of `CCCOc1ccc(OC(C(=O)NO)c2ccccc2)cc1` (stereo not drawn) [Compound 7-41, N-hydroxy-2-phenyl-2-(4-propoxyphenoxy)acetamide], the IC50 lay within 1 to 15 µM.
`CC(C)(C)c1ccc(COc2ccc(C(C(=O)NO)c3ccccc3)cc2)cc1` (stereo not drawn) [Compound 3-70, 2-(4-(4-tert-butylbenzyloxy)phenyl)-N-hydroxy-2-phenylacetamide] registered a 50% inhibitory concentration (IC50) below 1 µM.
In the case of `COc1ccc(C(=O)Nc2cccc(C(C(=O)NO)c3ccccc3)c2)cc1` (stereo not drawn) [Compound 2-69, N-(3-(2-(hydroxyamino)-2-oxo-1-phenylethyl)phenyl)-4-methoxybenzamide], the IC50 was below 1 µM.
With `CN(C)CCN1CCN(c2ccc(C(C(=O)NO)c3ccccc3)cc2)CC1` (stereo not drawn) [Compound 5-94, 2-(4-(4-(2-(dimethylamino)ethyl)piperazin-1-yl)phenyl)-N-hydroxy-2-phenylacetamide], the IC50 is below 1 µM.

The values are drawn from patent US9096565B2, “Inhibitors of histone deacetylase” (MethylGene Inc., priority 2007, dated 2015).
